Article PMC9960821, “Evaluation of Rhenium and Technetium-99m Complexes Bearing Quinazoline Derivatives as Potential EGFR Agents” (Molecules, 2023)

How the values were obtained:
[1] = Biodistribution in healthy Swiss Albino mice after intravenous injection; format: in vivo; conditions: i.v.
Procedure: The pharmacokinetic profile of complexes 5b and 7b was evaluated in Swiss Albino healthy male mice at 5, 60, and 240 min post intravenous injection. Table 4 presents the results of the biodistribution studies expressed as % Injected Dose (ID)/g ± Standard Deviation (±SD). […] The high lipophilicity characterizing both complexes justifies the rapid hepatobiliary excretion, given the decreasing activity in the liver and the increasing amount of radioactivity in the intestines. Complex 5b presented faster clearance and elimination in the intestines at 60 min p.i. 34.05% of the radioactivity excreted, compared to 29.89% at 240 min p.i. of complex 7b. Radioactivity in the urine remained low in general, however, the lower logD7.4 value of complex 7b explains the relatively higher activity in the urines (7.88 ± 0.71%) as it is slightly more hydrophilic than 5b. Moreover, the low uptake in the brain indicates almost no blood-brain barrier penetration, although the complexes have favorable physicochemical characteristics.
All the biodistribution experiments were carried out in compliance with the national laws and European protocols (2010/63/EU) related to the conduct of animal experimentation. Nine healthy Swiss Albino mice (male, 30 ± 3 g), divided into three groups of three, were injected with the HPLC-purified 5b or 7b complex in saline with 10% EtOH (0.1 mL, ~75 kBq) through the tail vein. For each group, the animals were sacrificed by cardiectomy under slight ether anesthesia 5, 60, and 240 min after the injection. The organs of interest were excised, weighed, and counted in an automatic gamma counter. The bladder and excreted urine were not weighed. The stomach and intestines were not emptied of food contents prior to radioactivity measurements. The percentage of injected dose per organ (%ID/organ) was calculated by comparison of sample radioactivity to standard solutions containing 10% of the injected dose. The calculation for blood and muscle was based on measured activity, sample weight, and body composition data (considering that blood and muscle comprise 7 and 43% of body weight). The percentage of injected dose per gram (%ID/g) was calculated by dividing the %ID/organ by the weight of the organ or tissue.

[2] = target: T1, EGFR (Homo sapiens, UniProt P00533); assay: Inhibition of EGFR phosphorylation in intact A431 cells (immunoblotting); format: cell-based; conditions: 2 h compound then EGF 20 ng/mL 5 min, Western blot
T1 construct: by immunoblotting in intact A431 cells that overexpress EGFR; endogenous in cells; host or cells: A431 (human epidermoid vulvar carcinoma)
T1 sequence (P00533 25-1210): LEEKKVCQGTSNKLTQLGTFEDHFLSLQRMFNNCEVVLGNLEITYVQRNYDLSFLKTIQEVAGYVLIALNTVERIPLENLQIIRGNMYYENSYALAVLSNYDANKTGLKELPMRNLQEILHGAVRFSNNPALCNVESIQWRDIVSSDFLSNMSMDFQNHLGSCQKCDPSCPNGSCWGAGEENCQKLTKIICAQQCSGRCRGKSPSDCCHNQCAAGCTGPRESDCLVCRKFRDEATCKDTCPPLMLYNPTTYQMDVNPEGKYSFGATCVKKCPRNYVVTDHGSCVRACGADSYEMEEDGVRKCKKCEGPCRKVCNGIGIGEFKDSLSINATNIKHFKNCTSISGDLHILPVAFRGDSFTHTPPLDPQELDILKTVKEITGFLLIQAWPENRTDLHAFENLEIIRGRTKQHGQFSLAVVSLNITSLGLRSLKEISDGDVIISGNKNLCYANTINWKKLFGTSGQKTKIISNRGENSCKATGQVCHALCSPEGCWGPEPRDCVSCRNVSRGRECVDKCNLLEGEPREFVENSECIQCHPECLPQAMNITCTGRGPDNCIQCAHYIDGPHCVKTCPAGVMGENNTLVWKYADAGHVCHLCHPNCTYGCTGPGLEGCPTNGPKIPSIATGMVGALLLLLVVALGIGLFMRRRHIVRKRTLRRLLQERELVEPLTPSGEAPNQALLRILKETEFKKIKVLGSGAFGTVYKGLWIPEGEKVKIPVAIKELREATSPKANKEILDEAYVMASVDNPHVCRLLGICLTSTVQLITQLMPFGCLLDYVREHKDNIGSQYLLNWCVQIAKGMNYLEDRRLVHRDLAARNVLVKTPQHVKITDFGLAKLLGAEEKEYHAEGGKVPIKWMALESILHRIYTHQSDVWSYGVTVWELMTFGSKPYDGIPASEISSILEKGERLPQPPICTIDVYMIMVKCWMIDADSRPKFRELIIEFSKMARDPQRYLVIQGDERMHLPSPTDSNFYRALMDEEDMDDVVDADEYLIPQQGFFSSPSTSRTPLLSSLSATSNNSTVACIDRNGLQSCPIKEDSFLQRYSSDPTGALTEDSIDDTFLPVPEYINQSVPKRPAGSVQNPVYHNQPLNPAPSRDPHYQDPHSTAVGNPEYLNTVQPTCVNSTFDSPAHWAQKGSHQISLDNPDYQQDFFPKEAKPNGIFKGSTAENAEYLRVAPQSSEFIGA
Procedure: Complex 5a was evaluated for its potency to inhibit EGFR phosphorylation in various concentrations by immunoblotting in intact A431 cells that overexpress EGFR (Figure 3). In addition, the percentage of EGFR phosphorylation was calculated, and a dose-response curve was performed (Figure 4).
Cell line. The in vitro biological studies were established using the human epidermoid vulvar carcinoma A431 cell line, which overexpresses EGFR. Cells were available in our laboratory from previous studies. Cells were maintained in high glucose D-MEM medium with L-glutamine (PAA Laboratories GmbH, Pasching, Austria) and supplemented with 10% fetal bovine serum (PAA Laboratories GmbH) and penicillin/streptomycin (PAA Laboratories GmbH) 100 UI/100 μg per mL, in 5% CO2 incubator at 37 °C.
The inhibition of EGFR phosphorylation was studied as described in the literature. A431 cells (5 × 10^5 cells/well) were seeded in 6-well plates and incubated for 24 h. Then, the medium was replaced with fresh medium without fetal bovine serum. […] Protein band quantification was performed using Image-J software, and the percentage of EGFR phosphorylation inhibition was calculated using GraphPad Prism 9.0 software.

[3] = Stability of 99mTc complexes in reaction mixture and after isolation in PBS (RP-HPLC); format: physicochemical
Procedure: The stability of complexes 5b and 7b was studied in their reaction mixture and after isolation by HPLC for up to 24 h.
Stability of ^99mTc complexes in the reaction mixture: Samples of the ^99mTc complexes’ reaction mixture were stored at room temperature for up to 24 h. At 1, 6, and 24 h intervals, 100 μL of each sample was removed and analyzed by RP-HPLC.
Stability of isolated ^99mTc complexes: Purification and isolation of 5b and 7b complexes were performed by injection of the reaction mixture into RP-HPLC and isolation of the eluted compounds’ peaks, corresponding to the elution time of each complex. Followingly, 0.1 M PBS buffer solution (900 µL) was added to a vial containing 100 µL (50–120 MBq) of the isolated technetium-99m complex. The sample was incubated at 37 °C for up to 24 h and analyzed by RP-HPLC at 1, 6, and 24 h intervals.

O=C([O-])CN(CCCCCC(=O)Nc1ccc2ncnc(Nc3cccc(Br)c3)c2c1)Cc1ccccn1.[99Tc+].[C-]#[O+].[C-]#[O+].[C-]#[O+] [Compound 5b, fac-[^99mTc(NNO)(CO)3]]
In vivo stability (low spleen and stomach radioactivity; no oxidation to pertechnetate/TcO2) [1]: stable in vivo | Blood %Injected Dose/g ([1]; 5 min): 0.85 ± 0.23 %Injected Dose/g | Brain %Injected Dose/g ([1]; 5 min): 0.05 ± 0.02 %Injected Dose/g | Heart %Injected Dose/g ([1]; 5 min): 0.80 ± 0.12 %Injected Dose/g | Intestines %Injected Dose/g ([1]; 5 min): 9.22 ± 2.19 %Injected Dose/g | Kidneys %Injected Dose/g ([1]; 5 min): 8.49 ± 1.33 %Injected Dose/g | Liver %Injected Dose/g ([1]; 5 min): 27.68 ± 2.32 %Injected Dose/g | Lungs %Injected Dose/g ([1]; 5 min): 0.97 ± 0.20 %Injected Dose/g | Muscle %Injected Dose/g ([1]; 5 min): 0.19 ± 0.05 %Injected Dose/g | Pancreas %Injected Dose/g ([1]; 5 min): 0.63 ± 0.09 %Injected Dose/g | Spleen %Injected Dose/g ([1]; 5 min): 0.63 ± 0.09 %Injected Dose/g | Stomach %Injected Dose/g ([1]; 5 min): 0.72 ± 0.25 %Injected Dose/g | Urine % ID ([1]; 5 min): 0.09 ± 0.06 % ID | Blood %Injected Dose/g ([1]; 60 min): 0.14 ± 0.03 %Injected Dose/g | Brain %Injected Dose/g ([1]; 60 min): 0.03 ± 0.00 %Injected Dose/g | Heart %Injected Dose/g ([1]; 60 min): 0.13 ± 0.03 %Injected Dose/g | Intestines %Injected Dose/g ([1]; 60 min): 34.05 ± 2.05 %Injected Dose/g | Kidneys %Injected Dose/g ([1]; 60 min): 1.28 ± 0.17 %Injected Dose/g | Liver %Injected Dose/g ([1]; 60 min): 1.24 ± 0.24 %Injected Dose/g | Lungs %Injected Dose/g ([1]; 60 min): 0.13 ± 0.03 %Injected Dose/g | Muscle %Injected Dose/g ([1]; 60 min): 0.08 ± 0.01 %Injected Dose/g | Pancreas %Injected Dose/g ([1]; 60 min): 0.10 ± 0.03 %Injected Dose/g | Spleen %Injected Dose/g ([1]; 60 min): 0.11 ± 0.01 %Injected Dose/g | Stomach %Injected Dose/g ([1]; 60 min): 0.64 ± 0.27 %Injected Dose/g | Urine % ID ([1]; 60 min): 1.02 ± 0.17 % ID | Blood %Injected Dose/g ([1]; 240 min): 0.08 ± 0.01 %Injected Dose/g | Brain %Injected Dose/g ([1]; 240 min): 0.02 ± 0.00 %Injected Dose/g | Heart %Injected Dose/g ([1]; 240 min): 0.05 ± 0.01 %Injected Dose/g | Intestines %Injected Dose/g ([1]; 240 min): 37.28 ± 3.50 %Injected Dose/g | Kidneys %Injected Dose/g ([1]; 240 min): 0.06 ± 0.01 %Injected Dose/g | Liver %Injected Dose/g ([1]; 240 min): 0.39 ± 0.08 %Injected Dose/g | Lungs %Injected Dose/g ([1]; 240 min): 0.08 ± 0.01 %Injected Dose/g | Muscle %Injected Dose/g ([1]; 240 min): 0.07 ± 0.07 %Injected Dose/g | Pancreas %Injected Dose/g ([1]; 240 min): 0.09 ± 0.00 %Injected Dose/g | Spleen %Injected Dose/g ([1]; 240 min): 0.07 ± 0.02 %Injected Dose/g | Stomach %Injected Dose/g ([1]; 240 min): 0.60 ± 0.18 %Injected Dose/g | Urine % ID ([1]; 240 min): 1.33 ± 0.14 % ID | IC50 [2]: 26.1 nM | %RCP in PBS for 24 h ([3]; 0.1 M PBS, 37 °C, 24 h): 99 ± 2% | Stability in reaction mixture and after isolation by HPLC ([3]; up to 24 h, room temperature or 37 °C): No decomposition
